Source: patent US20180325933A1, “FOOD INTAKE, BODY WEIGHT AND GLUCOSE METABOLISM REGULATION BY MODULATION OF P2Y6 RECEPTOR SIGNALING” (priority 2014, published 2018)
No end group written: not given here.

Columns and labels:
[1] = tested on: wild type mice fed a normal chow diet; assay: Spontaneous food intake after intracerebroventricular (ICV) administration; type: in vivo
Description: To explore whether UDP plays a direct role on the central regulation of feeding behavior, the effect of intracerebroventricular administration (ICV) of UDP on spontaneous food intake in wild type mice fed with a normal chow diet was measured. Therefore, mice were anesthetized using ketamine/dexmedetomidine. Guide cannulas (26 gauges) were stereotaxically inserted into the lateral ventricle (bregma −0.2 mm, midline 1.0 mm, dorsal surface −2.1 mm). Animals were allowed to recover for one week prior to experiments.
Prior to the onset of the dark phase, mice acutely received 2 μL ICV administration of UDP (1 μM, 10 μM and 30 μM; Sigma-Aldrich®), MRS 2578 (1 μM, 10 μM; Sigma-Aldrich®), or control solution (NaCl). Spontaneous food intake was measured 2 and 4 hours after ICV administration from pre-weighed portions of food dispensed from the food rack. […] UDP appears to be a strong orexigenic agent as administration of 30 μM UDP induces a 45% increase of spontaneous food intake.
FIG. 1: (A) Food intake measurement (depicted as food intake to body weight) after intracereborventricular (icv) administration of increasing doses of UDP (1 μM, 10 μM and 30 μM) or vehicle (saline) (n=26vs13vs11vs14). (B) Food intake measurement (depicted as food intake to body weight) after intracereborventricular (icv) administration of P2Y6 antagonist MRS2578 (1 μM and […]) or vehicle (saline) (n=9vs5vs5). Data are presented as mean±SEM. **p<0.01, ***p<0.001.

AgRP neurons = assay: Electrophysiological recordings from AgRP-neurons; type: cell-based, AgRPtdTomato mice
Source text: Next the inventors aimed to further directly support the notion, that the P2Y6 agonist UDP can modulate the activity of AgRP-expressing neurons in the ARH. Therefore, the inventors performed electrophysiological recordings from transgenic mice which express red tomato protein under control of the AgRP promoter through Cre-loxP-mediated recombination in (B6; 129S6-Gt(ROSA)26Sortm9(CAG-tdTomato)Hze/J) mice (AgRPtdTomato) (FIGS. 4B and 4C). […] Collectively, these experiments indicate that orexigenic AgRP/NPY-coexpressing neurons in the ARH not only express the UDP receptor P2Y6 but that they are directly activated following UDP application both in vitro and in vivo.
Having defined that the food intake-promoting activity of UDP is mediated through P2Y6-dependent signaling, the inventors aimed to assess whether also UDP's ability to activate AgRP-neuron firing depends on functional P2Y6 signaling. To this end, the inventors performed electrophysiological recordings from genetically identified AgRP-neurons in AgRPtdTomato mice. […] Thus, not only UDP-induced activation of feeding but also UDP-stimulated activation of AgRP-neurons critically depends on functional P2Y6 signaling.
FIG. 4: (A) Confocal images and quantitative comparison of ARH cFos immunoreactive cells in NPY-GFP mice after intracerebroventricular administration of vehicle (saline) or 30 μM UDP (n=3 vs. 4). (B) Recording of an AgRPtdTomato neuron showing the increase in action potential frequency in response to the application of 3 μM UDP. […] (C) Identification of a recorded neuron by antibody staining against tdTomato (red) and a biocytin backfill of the recorded neuron (green). (D) Overall responsiveness to 3 μM UDP of the recorded AgRP neuron population (n=11 in total: 4 non-responsive neurons vs 7 responsive). (E) Quantification of action potential (AP) frequency (n=11). Grey circles mark single recordings responding with a significant increase in AP frequency, open circles are non-responsive neurons. All recordings have been conducted in synaptically isolated neurons. Scale bars: A, 50 μm; B, 100 μm and C, […] and […] in the magnifications, respectively. V3, third ventricle. Data are presented as mean±SEM, *p<0.05 (A) and as boxplots generated according to the “Tukey method” (mean: “+” median: horizontal line) (E). *p<0.05.
FIG. 6: Food intake measurement after intracerebroventricular (icv) administration of (A) vehicle (0.1% DMSO), 1 μM of the P2Y6-specific antagonist MRS […] or co-icv of 30 μM UDP and 1 μM MRS 2578 (n=10vs11vs14vs12), or (B) vehicle (0.1% DMSO), 1 μM MRS 2578, 2 μg ghrelin or co-icv of 2 μg ghrelin and 1 μM MRS 2578 (n=13vs13vs14vs14). (C) Original traces showing the action potential firing during the application of MRS 2578 and during the application of 3 μM UDP in the presence of MRS 2578. (D) Quantification of action potential frequency (AP) (n=12). Data are presented as mean±SEM, *p<0.05 (A-B) and as boxplots generated according to the “Tukey method” (mean: “+”, median: horizontal line) […]. *p<0.05, **p<0.01, ***p<0.001 as compared to vehicle or control.

P2Y6 = assay: Food intake after icv UDP or ghrelin with or without P2Y6 antagonist; type: in vivo, mice
Source text: To further elucidate the specific contribution of P2Y6-mediated signaling in UDP-dependent activation of food intake, the inventors took a pharmacological approach.
Data are presented as mean±SEM, *p<0.05 (A-B) and as boxplots generated according to the “Tukey method” (mean: “+”, median: horizontal line) (F). *p<0.05, **p<0.01, ***p<0.001 as compared to vehicle or control.

[2] = tested on: P2Y1, P2Y2, P2Y4 or P2Y11 receptors; settings: cited from earlier work
[3] = tested on: cFos immunoreactive cells in the arcuate nucleus of the hypothalamus; assay: cFos immunoreactivity in the arcuate nucleus after icv administration; type: in vivo, C57BL/6 N mice; settings: icv 30 μM UDP versus vehicle (saline)
Description: (§1) Having identified a restricted domain of P2Y6 expression in neurons of the ARH, the inventors next investigated whether intracerebroventricular (icv) application of the P2Y6 agonist UDP modulates activation of ARH neurons. To this end, C57BL/6 N control mice were implanted with icy cannulas in the lateral ventricle. Following icy administration of either vehicle (i.e. saline) or 30 μM UDP, brains were processed for immunochemistry with an antibody, which detects the immediate early gene product cFos. […] Since cFos activation can occur either directly in the respective brain area or indirectly via trans-synaptic activation of cells located in projecting areas of directly activated neurons, the inventors investigated the direct effect of UDP on its P2Y6. […] Therefore, the inventors also used pERK as a direct read-out of UDP action and the inventors assessed pERK immunoreactivity in the arcuate nucleus following icy UDP application. […]
(§2) FIG. 3: Confocal images and quantification comparison of (A) cFos- and (B) pERK-immunoreactive cells in the arcuate nucleus (ARH) of mice after intracerebroventricular administration of vehicle (saline) or 30 μM UDP (ncFos=7vs9; npERK=5vs6). […] (C) Quantification and representative immunoblots of phosphorylated and total ERK in hypothalamic cell lines after incubation with vehicle (saline) or 1 μM UDP (n=11vs12, from 3 independent experiments). […]

[4] = tested on: hypothalamic cell line (immortalized AgRP-neurons); assay: ERK phosphorylation in hypothalamic cell line (immunoblot); type: cell-based; settings: 1 μM UDP
Description: as §1, §2

[5] = tested on: pERK-positive cells in the ARH; assay: pERK immunoreactivity in the arcuate nucleus after icv administration; type: in vivo, mice; settings: icv 30 μM UDP
Description: as §1, §2

NPY-neurons in the ARH = assay: cFos immunoreactivity of NPY-neurons in NPY-GFP mice after icv administration; type: in vivo; settings: icv 30 μM UDP; 20% following vehicle
Source text: Given that the ventromedial part of the ARH mainly contains AgRP/NPY neurons, the inventors next directly investigated the specific effect of P2Y6/UDP on those neurons. The inventors addressed whether icy application of UDP specifically activates NPY/AgRP-coexpressing neurons in the ARH. The inventors therefore repeated the UDP-induced cFos experiments in mice, which express GFP under control of the neuropeptide (NPY)-promotor (NPY-GFP-mice).
FIG. 4: (A) Confocal images and quantitative comparison of ARH cFos immunoreactive cells in NPY-GFP mice after intracerebroventricular administration of vehicle (saline) or 30 μM UDP (n=3 vs. 4). (B) Recording of an AgRPtdTomato neuron showing the increase in action potential frequency in response to the application of 3 μM UDP. […] (C) Identification of a recorded neuron by antibody staining against tdTomato (red) and a biocytin backfill of the recorded neuron (green). (D) Overall responsiveness to 3 μM UDP of the recorded AgRP neuron population (n=11 in total: 4 non-responsive neurons vs 7 responsive). (E) Quantification of action potential (AP) frequency (n=11). Grey circles mark single recordings responding with a significant increase in AP frequency, open circles are non-responsive neurons. All recordings have been conducted in synaptically isolated neurons. […]

AgRPCre mice = assay: Food intake with pharmacogenetic (hM4D/CNO) inhibition of AgRP cells; type: in vivo; settings: icv 30 μM UDP
Source text: To directly assess, whether the ability of centrally applied UDP to activate feeding depends on AgRP-cell activation, the inventors investigated the effect of centrally administered UDP in mice, which allow for pharmacogenetic inhibition of AgRP cells. To this end, the inventors injected AgRPCre mice bilaterally into the ARH with an AAV, which co-expresses in a Cre-dependent manner the inhibtory DREADD-channel hM4D and mCherry.
FIG. 5: (A) Representative microphotographs of mCherry immunostainng in control and AgRP^Cre mice injected bilaterally in the arcuate nucleus (ARH) with Cre-dependent rAAV-hSyn-DIO-hM4D(Gi)-mCherry (mCherry, red; DAPI counterstaining, blue). Scale bar: 100 μm. V3, third ventricle. (B) Food intake measurement in virus-injected AgRP^Cre mice or control wild type litter mates. Mice received CNO injections (0.3 mg/kgBW) 15 minutes prior to icy administration of 30 μM UDP or vehicle (Saline) (n=6 vs 8 vs 5 vs 5). Data are presented as mean±SEM, **p<0.01, ***p<0.001 as compare to vehicle.

[6] = Serum uridine after intraperitoneal uridine; type: in vivo, C57BL/6 N mice; settings: 50 mg/kgBW uridine i.p.
Description: (§3) To directly address whether elevation of serum uridine concentrations—as observed in obesity—can lead to increased hypothalamic UDP synthesis, the inventors next injected C57BL/6 N control animals intraperitoneally with uridine.
(§4) FIG. 9: Effects of intraperitoneal injection of uridine (50 mg/kgBW) or vehicle (saline) in C57B16/N mice on (A) serum uridine (n=4-5 per group) and on (B) hypothalamic UDP contents (n=5 per group) 60 and 90 minutes post-injection as well on (C) food intake (n=15 per group). Data are presented as mean±SEM, *p<0.05, **p<0.01, ***p<0.001.

[7] = Hypothalamic UDP content after intraperitoneal uridine; type: in vivo, C57BL/6 N mice; settings: 50 mg/kgBW uridine i.p., 90 minutes after application
Description: as §3, §4

[8] = tested on: C57BL/6 N control animals; assay: Food intake after intraperitoneal uridine; type: in vivo, C57BL/6 N mice; settings: 50 mg/kgBW uridine i.p., 4 hours after application
Description: as §3, §4

## S=C=Nc1cccc(NC(=S)NCCCCNC(=S)Nc2cccc(N=C=S)c2)c1 [MRS2578, 1,4-Di[3-(3-isothiocyanatophenyl)thioureido]butane]
[1]; ICV 2 μL MRS 2578 (1 μM, 10 μM)
  spontaneous food intake: decreases food intake
AgRP neurons; MRS 2578-preincubation, 3 μM UDP
  effect on UDP's ability to reduce the membrane potential and activate action potential firing of AgRP-neurons: abrogated
AgRP neurons; MRS 2578 alone
  action potential frequency of AgRP-neurons, antagonist alone: no influence on action potential frequency
P2Y6; co-icv 2 μg ghrelin and 1 μM MRS 2578
  effect on ghrelin's ability to increase food intake: no effect
P2Y6; co-icv 30 μM UDP and 1 μM MRS 2578
  effect on UDP-induced increase of food intake: completely abrogated
P2Y6; icv 1 μM MRS 2578
  food intake, antagonist alone: does not modulate food intake by itself
[2]
  selectivity for P2Y6 receptor activity versus activity at P2Y1, P2Y2, P2Y4 or P2Y11 receptors: selectively blocks P2Y6 receptor activity

## O=c1ccn([C@@H]2O[C@H](COP(=O)(O)OP(=O)(O)O)[C@@H](O)[C@H]2O)c(=O)[nH]1 [UDP, uridine diphosphate]
[1]; ICV 30 μM UDP
  increase of spontaneous food intake: 45%
[1]; ICV 2 μL, 1 μM, 10 μM and 30 μM, food intake measured 2 and 4 hours after ICV
  spontaneous food intake: increases food intake in a dose-dependent manner
[3]
  increase in cFos immunoreactivity in the arcuate nucleus of the hypothalamus: 2.5 fold
[4]
  ERK-phosphorylation: clearly increased ERK-phosphorylation
[5]
  number of pERK-positive cells in the ARH: significantly increased the number of pERK-positive cells
NPY-neurons in the ARH
  proportion of NPY-neurons exhibiting cFos immunoreactivity: 60%
AgRP neurons; 3 μM UDP
  action potential frequency of AgRP neurons: increased action potential frequency
AgRP neurons; 3 μM UDP, n=11 in total
  number of responsive neurons in the recorded AgRP neuron population: 7
AgRP neurons; electrophysiology, 3 μM UDP
  proportion of AgRP-neurons sensitive to UDP: 60%
AgRPCre mice; AAV-injected AgRPCre mice, CNO-mediated inhibition of AgRP-neurons
  UDP's food intake stimulatory effect: completely abolished
AgRPCre mice; Cre-negative control animals, CNO 0.3 mg/kgBW
  effect of AAV injection and CNO on UDP-induced food intake: no effect
P2Y6; icv UDP alone
  increase of food intake: ≈ 50%

## O=c1ccn([C@@H]2O[C@H](CO)[C@@H](O)[C@H]2O)c(=O)[nH]1 [uridine]
[6]; 60 minutes post injection
  serum uridine concentrations: rapid increase of serum uridine concentrations
[6]; 90 minutes after injection
  serum uridine concentrations: returned to baseline concentrations
[7]
  hypothalamic UDP content: elevation of hypothalamic UDP content
[8]
  food intake: increased food intake significantly

## ghrelin: centrally applied ghrelin, used to increase feeding as specificity control (GSSFLSPEHQRVQQRKESKKPPAKLQPR; ends and bridges not checked; UniProt Q9UBU3 24-51, looked up)
P2Y6; icv 2 μg ghrelin
  feeding: increased feeding to comparable extend as observed upon UDP injection
